In brackets after ≈: the same amount, converted by molar mass.
Columns and labels:
[1] = test system: Mycolicibacterium smegmatis; experiment: Antimycobacterial activity against Mycobacterium smegmatis MC2 155 assessed as ATP leakage by measuring intracellular ATP at MIC measured at 1 hr of post dose by luciferase reporter gene assay; assay type: functional, str. MC2 155
CYP2D6 = CYP2D6 (Homo sapiens, UniProt P10635); experiment: Inhibition of CYP2D6 in human liver microsomes at 10 uM using bufuralol as substrate preincubated for 5 min followed by NADPH addition measured after 10 mins by LC-MS/MS method relative to control; assay type: ADME; settings: probe bufuralol
Sequence of CYP2D6 (P10635 whole entry): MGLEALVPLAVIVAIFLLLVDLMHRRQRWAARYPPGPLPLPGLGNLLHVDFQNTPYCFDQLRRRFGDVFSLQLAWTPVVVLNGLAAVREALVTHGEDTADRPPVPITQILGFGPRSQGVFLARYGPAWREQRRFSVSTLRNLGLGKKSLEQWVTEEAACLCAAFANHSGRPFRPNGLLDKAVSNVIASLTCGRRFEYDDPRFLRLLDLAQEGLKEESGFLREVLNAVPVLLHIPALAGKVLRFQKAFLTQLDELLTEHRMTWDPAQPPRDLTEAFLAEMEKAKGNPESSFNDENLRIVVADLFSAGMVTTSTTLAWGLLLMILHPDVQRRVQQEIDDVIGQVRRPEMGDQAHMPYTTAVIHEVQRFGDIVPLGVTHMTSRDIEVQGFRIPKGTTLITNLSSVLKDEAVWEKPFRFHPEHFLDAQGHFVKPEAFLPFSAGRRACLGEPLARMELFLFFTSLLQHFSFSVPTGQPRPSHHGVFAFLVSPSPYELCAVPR

[2] = test system: Mycolicibacterium smegmatis; experiment: Antimycobacterial activity against Mycobacterium smegmatis MC2 155 assessed as ATP leakage by measuring intracellular ATP at 0.5 times MIC measured at 3 hrs post dose by luciferase reporter gene assay; assay type: functional, str. MC2 155
[3] = test system: Mycolicibacterium smegmatis; experiment: Antimycobacterial activity against Mycobacterium smegmatis MC2 155 assessed as ATP leakage by measuring extracellular ATP at 4 times MIC measured at 24 hrs post dose by luciferase reporter gene assay; assay type: functional, str. MC2 155
CYP3A4 = CYP3A4 (Homo sapiens, UniProt P08684); experiment: Inhibition of CYP3A4 in human liver microsomes at 10 uM using midazolam as substrate preincubated for 5 min followed by NADPH addition measured after 10 mins by LC-MS/MS method relative to control; assay type: ADME; settings: probe midazolam
Sequence of CYP3A4 (P08684 whole entry): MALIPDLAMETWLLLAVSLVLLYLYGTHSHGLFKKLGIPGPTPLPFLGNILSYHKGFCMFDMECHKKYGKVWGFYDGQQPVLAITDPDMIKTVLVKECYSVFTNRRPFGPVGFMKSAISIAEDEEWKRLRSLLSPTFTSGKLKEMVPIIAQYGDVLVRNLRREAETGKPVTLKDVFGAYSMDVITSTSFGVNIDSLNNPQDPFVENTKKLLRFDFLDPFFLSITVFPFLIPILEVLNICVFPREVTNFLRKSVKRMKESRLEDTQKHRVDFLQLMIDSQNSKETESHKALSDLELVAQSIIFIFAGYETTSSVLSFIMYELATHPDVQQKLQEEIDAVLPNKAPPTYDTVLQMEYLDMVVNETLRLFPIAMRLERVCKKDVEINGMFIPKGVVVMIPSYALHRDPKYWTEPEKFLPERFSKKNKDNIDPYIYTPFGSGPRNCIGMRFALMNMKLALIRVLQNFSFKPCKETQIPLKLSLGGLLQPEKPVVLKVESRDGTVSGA

[4] = test system: Mycolicibacterium smegmatis; experiment: Antimycobacterial activity against Mycobacterium smegmatis MC2 155 assessed as ATP leakage by measuring intracellular ATP at 0.5 times MIC measured at 1 hr of post dose by luciferase reporter gene assay; assay type: functional, str. MC2 155
[5] = test system: Mycolicibacterium smegmatis; experiment: Antimycobacterial activity against Mycobacterium smegmatis MC2 155 assessed as ATP leakage by measuring intracellular ATP at 2 times MIC measured at 6 hrs post dose by luciferase reporter gene assay; assay type: functional, str. MC2 155
[6] = test system: Mycolicibacterium smegmatis; experiment: Induction of membrane integrity impairment in Mycobacterium smegmatis MC2 155 at 2 to 4 times MIC measured after 3 hrs by SYTO-9/propium iodide staining based Baclight assay relative to control; assay type: functional, str. MC2 155
[7] = test system: Mycolicibacterium smegmatis; experiment: Antimycobacterial activity against Mycobacterium smegmatis MC2 155 assessed as ATP leakage by measuring intracellular ATP at 0.5 times MIC measured at 24 hrs post dose by luciferase reporter gene assay; assay type: functional, str. MC2 155
[8] = test system: Mycolicibacterium smegmatis; experiment: Antimycobacterial activity against Mycobacterium smegmatis MC2 155 assessed as ATP leakage by measuring extracellular ATP at MIC measured at 1 hr of post dose by luciferase reporter gene assay; assay type: functional, str. MC2 155
[9] = test system: Mycolicibacterium smegmatis; experiment: Antimycobacterial activity against Mycobacterium smegmatis MC2 155 assessed as ATP leakage by measuring intracellular ATP at MIC measured immediatey after addition of compounds by luciferase reporter gene assay; assay type: functional, str. MC2 155
[10] = test system: Mycolicibacterium smegmatis; experiment: Antimycobacterial activity against Mycobacterium smegmatis MC2 155 assessed as ATP leakage by measuring extracellular ATP at 4 times MIC measured at 1 hr of post dose by luciferase reporter gene assay; assay type: functional, str. MC2 155
[11] = test system: Mycolicibacterium smegmatis; experiment: Antimycobacterial activity against Mycobacterium smegmatis MC2 155 assessed as ATP leakage by measuring intracellular ATP at MIC measured at 9 hrs post dose by luciferase reporter gene assay; assay type: functional, str. MC2 155
[12] = test system: Mycolicibacterium smegmatis; experiment: Antimycobacterial activity against Mycobacterium smegmatis MC2 155 assessed as inhibition of respiratory ATP synthesis by measuring ATP level at 4 times MIC measured after 3 hrs by luciferase reporter gene assay (reference value: 158.3%); assay type: functional, str. MC2 155; design: scale not given: the % may be the effect or the level left
[13] = Hemolytic activity against New Zealand white rabbit RBC assessed as hemoglobin release measured after 1 hr; assay type: ADME, cell-based, Oryctolagus cuniculus, Erythrocyte; settings: red blood cells
[14] = test system: Mycolicibacterium smegmatis; experiment: Antimycobacterial activity against Mycobacterium smegmatis MC2 155 assessed as ATP leakage by measuring extracellular ATP at MIC measured at 3 hrs post dose by luciferase reporter gene assay; assay type: functional, str. MC2 155
[15] = test system: Mycolicibacterium smegmatis; experiment: Antimycobacterial activity against Mycobacterium smegmatis MC2 155 assessed as ATP leakage by measuring extracellular ATP at 4 times MIC measured at 6 hrs post dose by luciferase reporter gene assay; assay type: functional, str. MC2 155
[16] = test system: Mycolicibacterium smegmatis; experiment: Antimycobacterial activity against Mycobacterium smegmatis MC2 155 assessed as ATP leakage by measuring intracellular ATP at 2 times MIC measured at 1 hr of post dose by luciferase reporter gene assay; assay type: functional, str. MC2 155
[17] = test system: Mycolicibacterium smegmatis; experiment: Antimycobacterial activity against Mycobacterium smegmatis MC2 155 assessed as ATP leakage by measuring intracellular ATP at 0.5 times MIC measured at 9 hrs post dose by luciferase reporter gene assay; assay type: functional, str. MC2 155
[18] = Cytotoxicity against human corneal fibroblasts assessed as increase in LDH level measured after 4 hrs by Cytotox-one […] assay; assay type: toxicity, Corneal fibroblast
[19] = test system: Mycolicibacterium smegmatis; experiment: Antimycobacterial activity against Mycobacterium smegmatis MC2 155 assessed as ATP leakage by measuring extracellular ATP at 4 times MIC measured immediatey after addition of compounds by luciferase reporter gene assay; assay type: functional, str. MC2 155
[20] = Cytotoxicity against human corneal fibroblasts assessed as reduction in ATP level measured after 4 hrs by Celltiter-Glo luminescent assay; assay type: toxicity, Corneal fibroblast
[21] = test system: Mycolicibacterium smegmatis; experiment: Antimycobacterial activity against Mycobacterium smegmatis MC2 155 assessed as ATP leakage by measuring intracellular ATP at MIC measured at 6 hrs post dose by luciferase reporter gene assay; assay type: functional, str. MC2 155
[22] = test system: Mycolicibacterium smegmatis; experiment: Antimycobacterial activity against Mycobacterium smegmatis MC2 155 assessed as ATP leakage by measuring extracellular ATP at 0.5 times MIC measured at 3 hrs post dose by luciferase reporter gene assay; assay type: functional, str. MC2 155
[23] = test system: Mycolicibacterium smegmatis; experiment: Antimycobacterial activity against Mycobacterium smegmatis MC2 155 assessed as ATP leakage by measuring extracellular ATP at 0.5 times MIC measured at 24 hrs post dose by luciferase reporter gene assay; assay type: functional, str. MC2 155
Lipid bilayer = experiment: Induction of membrane damage in CI/DOPG/DOPI large unilamellar vesicles assessed as calcein leakage at 1:2 compound to lipid ratio by fluorescence based […] assay relative to control
[24] = Half life in rat liver microsomes at 1 uM preincubated for 5 mins followed by NADPH addition measured by LC-MS/MS method; assay type: ADME
CYP2C19 = CYP2C19 (Homo sapiens, UniProt P33261); experiment: Inhibition of CYP2C19 in human liver microsomes at 10 uM using omeprazole as substrate preincubated for 5 min followed by NADPH addition measured after 10 mins by LC-MS/MS method relative to control; assay type: ADME; settings: probe omeprazole
Sequence of CYP2C19 (P33261 whole entry): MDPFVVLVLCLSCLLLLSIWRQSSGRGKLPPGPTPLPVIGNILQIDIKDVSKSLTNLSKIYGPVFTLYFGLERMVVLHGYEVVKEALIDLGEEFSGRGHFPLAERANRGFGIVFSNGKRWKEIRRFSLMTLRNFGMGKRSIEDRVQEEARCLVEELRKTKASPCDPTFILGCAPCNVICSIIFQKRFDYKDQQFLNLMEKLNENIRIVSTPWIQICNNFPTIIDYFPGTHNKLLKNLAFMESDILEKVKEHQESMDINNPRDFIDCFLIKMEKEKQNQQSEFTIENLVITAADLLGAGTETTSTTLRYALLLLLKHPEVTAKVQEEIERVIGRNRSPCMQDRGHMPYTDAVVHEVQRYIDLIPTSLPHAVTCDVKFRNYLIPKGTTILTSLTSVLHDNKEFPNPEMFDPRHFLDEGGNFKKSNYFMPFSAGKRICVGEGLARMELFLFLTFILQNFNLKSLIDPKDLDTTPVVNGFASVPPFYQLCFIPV

[25] = test system: Mycolicibacterium smegmatis; experiment: Antimycobacterial activity against Mycobacterium smegmatis MC2 155 assessed as ATP leakage by measuring extracellular ATP at 2 times MIC measured at 3 hrs post dose by luciferase reporter gene assay; assay type: functional, str. MC2 155
[26] = test system: Mycobacterium tuberculosis; experiment: Antimycobacterial activity against Mycobacterium tuberculosis clinical isolate 01;111 assessed as reduction in 2 log10 bacterial colonies measured after 14 to 21 days by agar dilution method; assay type: functional
[27] = test system: Mycobacterium tuberculosis; experiment: Antimycobacterial activity against Mycobacterium tuberculosis clinical isolate 01;092 assessed as reduction in 2 log10 bacterial colonies measured after 14 to 21 days by agar dilution method; assay type: functional
[28] = test system: Mycobacterium tuberculosis; experiment: Antimycobacterial activity against Mycobacterium tuberculosis clinical isolate 01;064 assessed as reduction in 2 log10 bacterial colonies measured after 14 to 21 days by agar dilution method; assay type: functional
[29] = test system: Mycobacterium tuberculosis; experiment: Antimycobacterial activity against Mycobacterium tuberculosis clinical isolate 01;001 assessed as reduction in 2 log10 bacterial colonies measured after 14 to 21 days by agar dilution method; assay type: functional
[30] = test system: Mycobacterium tuberculosis; experiment: Antimycobacterial activity against Mycobacterium tuberculosis clinical isolate 01;087 assessed as reduction in 2 log10 bacterial colonies measured after 14 to 21 days by agar dilution method; assay type: functional
[31] = test system: Mycobacterium tuberculosis; experiment: Antimycobacterial activity against Mycobacterium tuberculosis clinical isolate 01;095 assessed as reduction in 2 log10 bacterial colonies measured after 14 to 21 days by agar dilution method; assay type: functional

With `CCCN(CCC)CCCCOc1cc2oc3cc(OCCCCN(CCC)CCC)c(OC)c(CC=C(C)C)c3c(=O)c2c(O)c1CC=C(C)C` the Activity [1] was 11.5%, the inhibition at 10 min, 10 µM (CYP2D6) was 0% and the Activity [2] was 61%. It also gave an Activity [3] of 88%, an inhibition at 10 min, 10 µM (CYP3A4) of 0% and an Activity [4] of 75.3%. For the same compound, the Activity [5] was 3.9%, the Activity [6] was greater than 80% and the Activity [7] was 46.4%. The Activity [8] was 88.5%, the Activity [9] was 97.7% and the Activity [10] was 94.3%. It also gave an Activity [11] of 10.6%, an Activity [12] of 4.6% and an HC50 at 1 h [13] greater than 277 µM. For the same compound, the Activity [14] was 91.8%, the Activity [15] was 83.5% and the Activity [16] was 2.8%. For the same compound, the Activity [17] was 66.5%, the CC50 at 4 h [18] was greater than 150 µM and the Activity [19] was 4.3%. The CC50 at 4 h [20] was 108 µM, the Activity [21] was 12% and the Activity [22] was 39%. The Activity [23] was 53.6%, the Activity (Lipid bilayer) was 13.3% and the half-life at 1 µM [24] was greater than 30 min. It also gave an inhibition at 10 min, 10 µM (CYP2C19) of 19.2% and an Activity [25] of 97.4%.

Work on `CCN(CC)CCCCOc1cc2oc3cc(OCCCCN(CC)CC)c(OC)c(CC=C(C)C)c3c(=O)c2c(O)c1CC=C(C)C` yielded an Activity [1] of 57.9%, an inhibition at 10 min, 10 µM (CYP2D6) of 6% and an MIC [26] of 4 µg/mL (≈ 6.02 µM). The Activity [2] was 83.6%, the Activity [3] was 97.3% and the inhibition at 10 min, 10 µM (CYP3A4) was 12%. The MIC [27] was 2 µg/mL (≈ 3.01 µM), the Activity [4] was 93.2% and the Activity [5] was 3.2%. For the same compound, the Activity [6] was greater than 80%, the Activity [7] was 33.3% and the Activity [8] was 42.1%. For the same compound, the Activity [9] was 99.2%, the Activity [10] was 97.4% and the Activity [11] was 17.6%. The Activity [12] was 2.6%, the Activity [14] was 88% and the Activity [15] was 96.7%. For the same compound, the MIC [28] was 8 µg/mL (≈ 12 µM), the Activity [16] was 4.4% and the Activity [17] was 76.8%. The MIC [29] was 4 µg/mL (≈ 6.02 µM), the CC50 at 4 h [18] was greater than 150 µM and the Activity [19] was 1.3%. For the same compound, the MIC [30] was 8 µg/mL (≈ 12 µM), the CC50 at 4 h [20] was 19.7 µM and the Activity [21] was 20.1%. The Activity [22] was 16.4%, the Activity [23] was 66.7% and the MIC [31] was 4 µg/mL (≈ 6.02 µM). It also gave an Activity (Lipid bilayer) of 47%, a half-life at 1 µM [24] greater than 30 min and an inhibition at 10 min, 10 µM (CYP2C19) of 3%. It also gave an Activity [25] of 97.3%.

Work on `COc1c(OCCCCN2CCOCC2)cc2oc3cc(OCCCCN4CCOCC4)c(CC=C(C)C)c(O)c3c(=O)c2c1CC=C(C)C` yielded an Activity [1] of 93.5%, an inhibition at 10 min, 10 µM (CYP2D6) of 0% and an MIC [26] of 4 µg/mL (≈ 5.77 µM). The Activity [2] was 94.1%, the Activity [3] was 95.5% and the inhibition at 10 min, 10 µM (CYP3A4) was 32%. The MIC [27] was 4 µg/mL (≈ 5.77 µM), the Activity [4] was 97.8% and the Activity [5] was 23.3%. For the same compound, the Activity [7] was 52.5%, the Activity [8] was 6.5% and the Activity [9] was 97.7%. For the same compound, the Activity [10] was 42.7%, the Activity [11] was 41.4% and the Activity [12] was 26.8%. It also gave an HC50 at 1 h [13] greater than 289 µM, an Activity [14] of 44.7% and an Activity [15] of 91.3%. It also gave an MIC [28] of 4 µg/mL (≈ 5.77 µM), an Activity [16] of 69.6% and an Activity [17] of 73.5%. For the same compound, the MIC [29] was 4 µg/mL (≈ 5.77 µM), the CC50 at 4 h [18] was greater than 150 µM and the Activity [19] was 3.8%. It also gave an MIC [30] of 8 µg/mL (≈ 11.5 µM), a CC50 at 4 h [20] greater than 150 µM and an Activity [21] of 63.7%. It also gave an Activity [22] of 5.9%, an Activity [23] of 47.5% and an MIC [31] of 4 µg/mL (≈ 5.77 µM). For the same compound, the half-life at 1 µM [24] was greater than 30 min, the inhibition at 10 min, 10 µM (CYP2C19) was 17% and the Activity [25] was 63.4%.

— ChEMBL document CHEMBL3872220, “Amphiphilic xanthones as a potent chemical entity of anti-mycobacterial agents with membrane-targeting properties” (Eur J Med Chem, 2016)
